Publication PMC3864238 (Pharmaceutics, 2011)

Tests used:
[1] = test system: PBMCs; experiment: Cellular association ratio (CAR) of radiolabelled drugs in PBMCs, drug-drug interaction; type: in vitro ADME, human; settings: for effect of incubation at 4 °C on cell-associated concentration / cellular association ratio (CAR): PBMCs; for effect of incubation at 4 °C on cell-associated concentration: 4 °C vs 37 °C; for effect of unlabelled drug on CAR of [^3H]-ddI: 1 μM [^3H]-ddI; for effect of unlabelled drug on CAR of [^3H]-ddI / effect of unlabelled drug on CAR of [^3H]-TDF: dI 100 μM; for cellular association ratio (CAR): 1 μM labelled drug, 30–45 min, no interacting drug, mean ± S.D.; for effect of unlabelled drug on CAR of [^3H]-TDF: 1 μM [^3H]-TDF
Description: 11 PBMC samples were isolated from blood buffy coats using Lymphoprep (Alexis-sheild, Oslo, Norway), following the manufacturer's instructions. An aliquot of the PBMC samples were cryopreserved in fetal calf serum containing 10% dimethyl sulphoxide for batch analysis of membrane proteins by flow cytometry.
We also used 50 μM dipyridamole, 100 μM of deoxycytidine (dC), deoxyinosine (dI) and deoxyguanosine (dG) as positive controls to inhibit the transport of the drugs. The concentrations used of these inhibitors were based on previous observations. […] In a limited number of PBMC samples, we investigated the effects of two drug combinations on the uptake of labelled compounds as described above. The incubations were terminated by centrifugation (15,000 g, 1 min at 0 °C). A-100 μL aliquot of the supernatant was counted for radioactivity and the cell pellets were washed three times in ice-cold phosphate buffered saline followed by rapid centrifugation before the pellets were solubilised in 100 μL of distilled water as described previously and counted for radioactivity.

[2] = test system: PBMCs; experiment: Cell fractionation: membrane-bound and intracellular radiolabelled drug in PBMCs; type: in vitro ADME, human; settings: 50 μM ABC
Description: In a separate experiment, cells were incubated with the tritiated compounds ([^3H]-3TC, -ddI and -TDF) in the absence or presence of 50 μM ABC as described. The assay was terminated by rapid centrifugation in a chilled microcentrifuge and the cell pellets were washed three times in ice-cold PBS as described, followed by three times of rapid freezing in liquid nitrogen and thawing at room temperature. The suspension was layered on top of 1 mL of ice-cold 42% percoll solution containing 0.25 M sucrose, 1.5 mM magnesium chloride, pH 7.1, and centrifuged (12,000 g, 30 min at 4 °C). After centrifugation, the radioactivity in the clear supernatant (assumed as intracellular drug) and in the pellet/debris, harvested from the bottom of the gradient (assumed as membrane-bound drug) were determined by scintillation counting.

[3] = Octanol-saline partition coefficient; type: physicochemical; settings: octanol/phosphate buffered saline; radiolabelled drug 10-31 nM
Description: Briefly, an equal volume of octanol and phosphate buffered saline (PBS) were presaturated by vigorously vortexing them for 5 min. The suspension was allowed to settle for 10 min before the upper saturated octanol layer was carefully removed and stored in a separate tube. […] Then 540 μL aliquots of each compound were added to an equal volume of presaturated octanol and vortexed for 5 min. The samples were centrifuged (1000 g for 5 min). The concentrations of radiolabelled drug in a volume of the octanol (upper layer) and in a similar volume of saline (lower layer) were measured using scintillation counting. The octanol-saline partition coefficient was determined as a ratio of radiolabelled drug in the octanol phase to radiolabelled drug concentration in the saline phase.

[4] = test system: CEM, CEMVBL (P-gp-overexpressing), CEME1000 (MRP1-overexpressing) and U937 cells; experiment: Preliminary transport experiments in cell lines; type: in vitro ADME; settings: data not shown; for concentration-dependent effect of unlabelled drug on accumulation of the labelled drugs: 0-100 μM unlabelled drug, CEM, CEMVBL, CEME1000 and U937 cells
[5] = test system: MRP; set-up: method as in PMID 17328866, PMID 17202245, PMID 19075072; settings: cited from earlier work
[6] = test system: P-gp; set-up: method as in PMID 11145192; settings: cited from earlier work
[7] = test system: BCRP; set-up: method as in PMID 17202245; settings: cited from earlier work
[8] = test system: P-gp; settings: cited from earlier work
[9] = test system: guinea-pig brain perfusion and choroid plexus models; settings: cited from earlier work
[10] = unlabelled drugs 50 μM, dipyridamole 50 μM

intracellular drug concentration, effect of ABC [2] | membrane-bound drug concentration, effect of ABC [2] | Partition coefficient (mean ± SD) [3] | concentration-dependent effect of unlabelled drug on accumulation of the labelled drugs [4] | Compound | effect of incubation at 4 °C on cell-associated concentration [1] | inhibition of MRP activity [5] | also measured
significantly (P < 0.05) decreased | unaffected |  |  | O=c1[nH]cnc2c1ncn2[C@H]1CC[C@@H](CO)O1 [ddI, didanosine] | significantly (P < 0.001) reduced at 4 °C |  | 
unaffected | significantly (P < 0.05) decreased | 0.117 ± 0.0049 | no concentration-dependent effects | Nc1ccn([C@@H]2CS[C@H](CO)O2)c(=O)n1 [3TC, lamivudine] | significantly (P < 0.001) reduced at 4 °C | inhibited | P-gp substrate ([4]; preliminary studies): not a P-gp substrate; P-gp substrate [6]: not a substrate
 |  | 7.065 ± 0.44 | no concentration-dependent effects | Nc1nc(NC2CC2)c2ncn([C@H]3C=C[C@@H](CO)C3)c2n1 [ABC, abacavir] | did not affect | inhibited | effect of unlabelled drug on CAR of [^3H]-ddI [1, 10]: no effect; cellular association ratio (CAR) [1]: 7.62 ± 1.32; BCRP inhibitory effect [7]: inhibits; inhibition of P-gp activity [8]: inhibited; effect on intracellular accumulation of [^3H]-ddI [9]: increased
 |  |  |  | OCCN(CCO)c1nc(N2CCCCC2)c2nc(N(CCO)CCO)nc(N3CCCCC3)c2n1 [dipyridamole] |  |  | effect of unlabelled drug on CAR of [^3H]-TDF [1, 10]: unaffected
 |  | 0.0022 ± 0.0001 |  | OC[C@@H](O)[C@@H](O)[C@H](O)[C@H](O)CO [[^14C]-Mannitol, mannitol] |  |  | 
 |  |  |  | OC[C@H]1O[C@@H](n2cnc3c(O)ncnc32)C[C@@H]1O [dI, deoxyinosine] |  |  | effect of unlabelled drug on CAR of [^3H]-TDF [1, 10]: unaffected
unaffected | unaffected |  | no concentration-dependent effects | CC(C)OC(=O)OCOP(=O)(CO[C@H](C)Cn1cnc2c(N)ncnc21)OCOC(=O)OC(C)C.O=C(O)/C=C/C(=O)O [TDF, Tenofovir disoproxil fumarate] | significantly (P < 0.001) reduced at 4 °C | inhibited | effect of unlabelled drug on CAR of [^3H]-3TC ([1]; 1 μM [^3H]-3TC, unlabelled drugs 50 μM, dipyridamole 50 μM, dC 100 μM): significantly (P < 0.05) reduced uptake; effect of unlabelled drug on CAR of [^3H]-ddI [1, 10]: no effect; cellular association ratio (CAR) [1]: 2.20 ± 0.29; BCRP inhibitory effect [7]: devoid of any BCRP inhibitory effect; inhibition of P-gp activity [8]: inhibited
